{"source": "patent US10835605B2", "about": "“Preparations of poly(lactic-co-glycolic acid)/polydopamine core/shell hybrid nanoparticle for photothermal applications” (UNIVERSITY OF SOUTH CAROLINA, priority 2015, dated 2020)", "key": {"UMSCC 22A cells [1]": {"test_system": "UMSCC 22A cells", "test": "Cellular uptake by confocal microscopy and flow cytometry", "assay_type": "cell-based", "conditions": "flow cytometry, 3 h incubation, FIG. 8", "description": "UMSCC 22A cells (300,000cells/well) were seeded in 6-well plates overnight. After that, DOX, DOX@PLGA/PD-PEG, and DOX@PLGA/PD-C nanoparticles were added at the DOX equivalent concentration of 1 μg/m L. In order to investigate the effect of EGFR on the cellular uptake of DOX@PLGA/PD-C nanoparticle, cells were pretreated with free anti-EGFR antibody (200 μg/mL) 30 min before adding DOX@PLGA/PD-C nanoparticles. The plate was incubated at 37° C. for 3 h. Then cells were washed, trypsinized and resuspended in PBS. DOX-positive cell population was quantified at Ex=488 nm, Em=585 nm using flow cytometry (BD Accuri C6, BD Biosciences)."}, "UMSCC 22A cells [2]": {"test_system": "UMSCC 22A cells", "test": "In vitro cytotoxicity (MTT cell proliferation assay) with or without NIR irradiation", "assay_type": "cell-based", "conditions": "FIG. 9", "description": "The cytotoxicity of nanoparticles was evaluated by MTT assay. UMSCC 22A cells were seeded in 96-well plate (20,000 cells/well) for 24 h prior to the study. Following, either free DOX or DOX@PLGA/PD-PEG nanoparticles with DOX concentration equal to 2, 5 and 10 μg/mL were added. For comparison, PLGA/PD-PEG (no DOX encapsulation) nanoparticles were also added. The cells were then incubated 3 h in 95/5% air/CO2 at 37° C. followed by irradiation under a 808 nm laser for 10 min. After that, all wells were washed 2 times and replaced with fresh culture medium and kept incubation for another 24 h. Finally, MTT reagent (100 μL, 10%(w/w) in medium) was added and incubated for 4h, following the addition of MTT stop solution and the measurement of the optical density of the medium using a microplate reader (ELX808, Bio-Tech Instrument, Inc.) at λ=595 nm."}, "UMSCC 22A cells [3]": {"test_system": "UMSCC 22A cells", "test": "Tumor growth inhibitory assay, subcutaneous head and neck cancer mouse model", "assay_type": "in vivo, female Balb/c nude mice", "description": "UMSCC 22A cells (3×10^6 cells in 100 μL DMEM medium) were inoculated subcutaneously in female Balb/c nude mice (8-10 week old, ˜20 g, Jackson Laboratory). The tumor volume was measured by a digital caliper and calculated according to the following formula: Tumor volume=tumor length)×(tumor width)^2/2. […] For the control group, PBS was injected. Mice were exposed to an 808 nm laser irradiation (2.83 W/cm^2) 3 h post injection for 10 min. The temperature of the mice during the irradiation was recorded by the FLIR thermal camera. The tumor volumes (V) of the mice were measured every other day for 24 days. The relative tumor volume expressed as V/V0 (V0 was the tumor volume when the treatment was initiated) was used to represent the tumor size change during the whole treatment process. After 24 days, the mice were sacrificed and the blood, tumor, liver, heart, lung, kidneys, and spleen were collected for further analysis. All organs were firstly fixed in 10% neutral buffered formalin for 48 h and then washed with PBS and finally kept in 70% ethanol at 4° C."}, "[4]": {"test": "TEM analysis of heart tissue (cardiotoxicity)", "assay_type": "in vivo, mice", "conditions": "hearts collected after 24 days; DOX@PLGA/PD-C coupled with NIR irradiation", "description": "To study the cardiotoxicity of DOX, the hearts of the mice were analyzed by TEM. The formalin fixed samples were further fixed with 1% perosmic oxide for 2 h at 4° C., washed with water and then dehydrated in a series of alcohol solutions, embedded, and sliced with the thickness between 50 and 70 nm. TEM analysis was performed on Hitachi H8000 operating at 200 kV."}}}
{"smiles": "COc1cccc2c1C(=O)c1c(O)c3c(c(O)c1C2=O)C[C@@](O)(C(=O)CO)C[C@@H]3O[C@H]1C[C@H](N)[C@H](O)[C@H](C)O1", "note": "[free DOX, Doxorubicin]", "values": [{"measurement": "speed of entry into cancer cells", "setting": "UMSCC 22A cells [1]", "value": "entered cancer cells faster than the DOX@PLGA/PD-C nanoparticles"}, {"measurement": "cell killing effect versus other treatments", "setting": "UMSCC 22A cells [2]", "value": "higher cell killing effect than other treatments except at 10 μM dose"}, {"measurement": "tumor recurrence / regrowth", "setting": "UMSCC 22A cells [3]; 24-day observation", "value": "gradually bounced back 10 days post treatment"}, {"measurement": "tumor response after treatment", "setting": "UMSCC 22A cells [3]; intratumoral, 40 μL, DOX equivalent 15 μg/mL, DOX@PLGA/PD-C coupled with NIR irradiation", "value": "only slightly reduced tumor size"}, {"measurement": "H&E staining of tumor tissue", "setting": "UMSCC 22A cells [3]; tumors collected after 24 days", "value": "kept the characteristics of squamous cell carcinoma"}, {"measurement": "heart tissue structure (mitochondria) by TEM", "setting": "[4]", "value": "significantly compromised"}]}
